Data reported in PubChem BioAssay AID1963962 (Molecular Pharmacology Branch, DTP, NCI, 2024).
pIC50: −log10 of the molar value. Values joined by “and” are separate entries in the source; they are usually repeats but may differ in a detail not shown here. Equal values may be shown once. One block for each compound: values may come before it.

Test system: 967376-340-R-J2-PDC multicell spheroid viability
Assay: Anticancer human tumor 967376-340-R-J2-PDC patient-derived colon adenocarcinoma cell line growth inhibition [PI3K]
Details: for viability, T/C: stronger effect = lower value
Outline: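 Viability of mixed-cell spheroids was determined after exposure to pairwise combinations, one partner being inavolisib, alpelisib, duvelisib or copanlisib. Highest tested concentration matched clinical Cmax where known and 10 microM where not, descending in half-log steps.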

[1] = curve of first compound, second compound 0.00316 µM
[2] = curve of first compound, second compound 0.01 µM
[3] = curve of first compound, second compound 0.0316 µM
[4] = curve of first compound, second compound 0.1 µM
[5] = curve of first compound, second compound 0.316 µM
[6] = curve of first compound, second compound 1 µM
[7] = second compound 0.00316 µM, first compound 0.0316 µM
[8] = second compound 0.00316 µM, first compound 0.1 µM
[9] = second compound 0.00316 µM, first compound 0.316 µM
[10] = second compound 0.00316 µM, first compound 1 µM
[11] = second compound 0.00316 µM, first compound 3.16 µM
[12] = second compound 0.00316 µM, first compound 10 µM
[13] = second compound 0.01 µM, first compound 0.0316 µM
[14] = second compound 0.01 µM, first compound 0.1 µM
[15] = second compound 0.01 µM, first compound 0.316 µM
[16] = second compound 0.01 µM, first compound 1 µM
[17] = second compound 0.01 µM, first compound 3.16 µM
[18] = second compound 0.01 µM, first compound 10 µM
[19] = second compound 0.0316 µM, first compound 0.0316 µM
[20] = second compound 0.0316 µM, first compound 0.1 µM
[21] = second compound 0.0316 µM, first compound 0.316 µM
[22] = second compound 0.0316 µM, first compound 1 µM
[23] = second compound 0.0316 µM, first compound 3.16 µM
[24] = second compound 0.0316 µM, first compound 10 µM
[25] = second compound 0.1 µM, first compound 0.0316 µM
[26] = second compound 0.1 µM, first compound 0.1 µM
[27] = second compound 0.1 µM, first compound 0.316 µM
[28] = second compound 0.1 µM, first compound 1 µM
[29] = second compound 0.1 µM, first compound 3.16 µM
[30] = second compound 0.1 µM, first compound 10 µM
[31] = second compound 0.316 µM, first compound 0.0316 µM
[32] = second compound 0.316 µM, first compound 0.1 µM
[33] = second compound 0.316 µM, first compound 0.316 µM
[34] = second compound 0.316 µM, first compound 1 µM
[35] = second compound 0.316 µM, first compound 3.16 µM
[36] = second compound 0.316 µM, first compound 10 µM
[37] = second compound 1 µM, first compound 0.0316 µM
[38] = second compound 1 µM, first compound 0.1 µM
[39] = second compound 1 µM, first compound 0.316 µM
[40] = second compound 1 µM, first compound 1 µM
[41] = second compound 1 µM, first compound 3.16 µM
[42] = second compound 1 µM, first compound 10 µM
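Also: spheroids exposed to agents for 7 days before read-out.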
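For viability, T/C in this document: luminescence used as surrogate of cell viability.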

pIC50 [1]: < 5.00
pIC50 [2]: < 5.00
pIC50 [3]: < 5.00
pIC50 [4]: < 5.00
pIC50 [5]: 7.19
pIC50 [6]: > 7.50
SMILES: Cn1nccc1Nc1nccc(-c2ccn(C(CO)c3ccc(Cl)c(F)c3)c(=O)c2)n1 (centres undefined) + COc1c(OCCCN2CCOCC2)ccc2c3n(c(=NC(=O)c4cnc(N)nc4)nc12)CCN3
viability, T/C [7]: 117%
viability, T/C [8]: 117%
viability, T/C [9]: 86.2%
viability, T/C [10]: 86.9%
viability, T/C [11]: 137%
viability, T/C [12]: 74.5%
viability, T/C [13]: 96.2%
viability, T/C [14]: 87.6%
viability, T/C [15]: 96.4%
viability, T/C [16]: 100%
viability, T/C [17]: 97.5%
viability, T/C [18]: 97.8%
viability, T/C [19]: 73.5%
viability, T/C [20]: 96.8%
viability, T/C [21]: 72.9%
viability, T/C [22]: 79.2%
viability, T/C [23]: 83.1%
viability, T/C [24]: 84.8%
viability, T/C [25]: 61.1%
viability, T/C [26]: 67%
viability, T/C [27]: 55.6%
viability, T/C [28]: 86.7%
viability, T/C [29]: 58.9%
viability, T/C [30]: 43.6%
viability, T/C [31]: 58.5%
viability, T/C [32]: 43%
viability, T/C [33]: 34.8%
viability, T/C [34]: 49.5%
viability, T/C [35]: 57.5%
viability, T/C [36]: 29.3%
viability, T/C [37]: 44.4%
viability, T/C [38]: 31%
viability, T/C [39]: 40.7%
viability, T/C [40]: 49.4%
viability, T/C [41]: 42.9%
viability, T/C [42]: 27.6%

pIC50 [1]: < 5.00
pIC50 [2]: 5.02
pIC50 [3]: 5.51
pIC50 [4]: 6.71
pIC50 [5]: > 7.50
pIC50 [6]: > 7.50
SMILES: CC1(C)CCC(Nc2ncc(C(F)(F)F)c(-c3c[nH]c4c(P(C)(C)=O)c(C#N)ccc34)n2)CN1 (centres undefined) + COc1c(OCCCN2CCOCC2)ccc2c3n(c(=NC(=O)c4cnc(N)nc4)nc12)CCN3
viability, T/C [7]: 84.5%
viability, T/C [8]: 81.8%
viability, T/C [9]: 80.2%
viability, T/C [10]: 80%
viability, T/C [11]: 66.2%
viability, T/C [12]: 59.6%
viability, T/C [13]: 79.7%
viability, T/C [14]: 77.4%
viability, T/C [15]: 75.2%
viability, T/C [16]: 75.5%
viability, T/C [17]: 61.9%
viability, T/C [18]: 49.4%
viability, T/C [19]: 69.9%
viability, T/C [20]: 84%
viability, T/C [21]: 73.8%
viability, T/C [22]: 66.5%
viability, T/C [23]: 49.4%
viability, T/C [24]: 45.9%
viability, T/C [25]: 72.3%
viability, T/C [26]: 47.6%
viability, T/C [27]: 54.1%
viability, T/C [28]: 45.5%
viability, T/C [29]: 43.7%
viability, T/C [30]: 36.5%
viability, T/C [31]: 49.4%
viability, T/C [32]: 45%
viability, T/C [33]: 37.3%
viability, T/C [34]: 38.4%
viability, T/C [35]: 36.6%
viability, T/C [36]: 22.3%
viability, T/C [37]: 32%
viability, T/C [38]: 27.4%
viability, T/C [39]: 34%
viability, T/C [40]: 30.7%
viability, T/C [41]: 27.1%
viability, T/C [42]: 20.9%

pIC50 (curve of compound): < 5.00
SMILES: Cn1nccc1Nc1nccc(-c2ccn(C(CO)c3ccc(Cl)c(F)c3)c(=O)c2)n1 (centres undefined)
viability, T/C (compound 0.0316 µM): 100% [middle of 4 runs]
viability, T/C (compound 0.1 µM): 94.5% [middle of 4 runs]
viability, T/C (compound 0.316 µM): 101% (2×) and 95.3% and 76.4%
viability, T/C (compound 10 µM): 99.5% [middle of 4 runs]
